Measurements reported in publication PMC6420870 (Neuropharmacology, 2019).

How the values were obtained:
Assay type in all cases: cell-based
[1] = molecular target: T1, rat mGlu5 (HEK293A-rat mGlu5-low) (Rattus norvegicus, UniProt P31424); assay: IP1 accumulation
[2] = molecular target: T1, rat mGlu5 (HEK293A-rat mGlu5-low); assay: [3H]methoxy-PEPy inhibition binding, intact adherent cells
[3] = molecular target: T1, rat mGlu5 (HEK293A-rat mGlu5-low); assay: radioligand binding, intact adherent cells; details: labelled compound, ~2 nM, RT, 1 h, pH 7.4; allosteric site

T1 sequence (P31424 21-1203): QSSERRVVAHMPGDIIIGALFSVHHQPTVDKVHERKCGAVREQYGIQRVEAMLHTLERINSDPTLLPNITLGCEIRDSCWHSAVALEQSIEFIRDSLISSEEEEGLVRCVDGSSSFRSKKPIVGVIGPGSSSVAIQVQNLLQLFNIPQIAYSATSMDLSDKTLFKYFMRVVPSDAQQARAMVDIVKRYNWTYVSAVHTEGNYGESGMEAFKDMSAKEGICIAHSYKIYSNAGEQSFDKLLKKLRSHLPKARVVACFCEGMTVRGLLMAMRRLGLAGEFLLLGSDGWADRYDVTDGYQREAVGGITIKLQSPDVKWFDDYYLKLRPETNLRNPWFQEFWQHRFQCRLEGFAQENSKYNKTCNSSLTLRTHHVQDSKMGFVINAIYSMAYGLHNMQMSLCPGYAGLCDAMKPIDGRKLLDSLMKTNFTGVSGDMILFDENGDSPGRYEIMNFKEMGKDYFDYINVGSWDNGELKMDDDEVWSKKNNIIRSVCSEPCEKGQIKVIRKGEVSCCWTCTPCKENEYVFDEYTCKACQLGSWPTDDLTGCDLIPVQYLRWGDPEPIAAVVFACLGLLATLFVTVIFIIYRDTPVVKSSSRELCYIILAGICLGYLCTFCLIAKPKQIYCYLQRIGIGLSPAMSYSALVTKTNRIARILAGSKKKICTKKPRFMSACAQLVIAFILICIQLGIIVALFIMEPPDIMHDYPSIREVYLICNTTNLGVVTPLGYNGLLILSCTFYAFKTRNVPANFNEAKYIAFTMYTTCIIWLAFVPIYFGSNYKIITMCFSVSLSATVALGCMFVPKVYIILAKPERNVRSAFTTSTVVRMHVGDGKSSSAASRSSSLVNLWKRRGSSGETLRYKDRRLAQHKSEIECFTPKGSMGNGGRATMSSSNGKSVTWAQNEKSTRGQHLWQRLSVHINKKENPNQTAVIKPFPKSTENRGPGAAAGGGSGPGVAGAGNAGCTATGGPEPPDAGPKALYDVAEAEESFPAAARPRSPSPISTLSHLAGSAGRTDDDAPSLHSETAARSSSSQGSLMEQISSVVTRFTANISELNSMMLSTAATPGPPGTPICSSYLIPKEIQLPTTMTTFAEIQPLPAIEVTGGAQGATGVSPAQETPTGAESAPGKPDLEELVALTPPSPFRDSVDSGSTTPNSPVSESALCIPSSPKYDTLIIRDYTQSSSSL

Row | SMILES | IC50 [1] | Ki [2] | radioligand binding, intact adherent cells [3]
1 | N#Cc1cc(F)cc(C(=O)Nc2cccc(Cl)c2F)c1 [VU0366248, N-(3-chloro-2-fluorophenyl)-3-cyano-5-fluorobenzamide] | 331 nM | 115 nM | 
2 | CN1CC(=O)N=C1NC(=O)Nc1cccc(Cl)c1 [fenobam, 1-(3-chlorophenyl)-3-[(2e)-1-methyl-4-oxoimidazolidin-2-ylidene]urea] | 148 nM | 70.8 nM | 
3 | Fc1ccc2nc(CCC#Cc3ccccn3)cn2c1 [dipraglurant, 6-fluoro-2-[4-(2-pyridinyl)-3-butyn-1-yl]-Imidazo[1,2-a]pyridine] | 43.7 nM | 49 nM | 
4 | N#Cc1cnc(Nc2nc3ccccc3o2)nc1-c1ccc(F)cc1 [VU0366058, 2-(1,3-benzoxazol-2-ylamino)-4-(4-fluorophenyl)pyrimidine-5-carbonitrile] | 105 nM | 55 nM | 
5 | COc1cncc(C#Cc2ccccn2)c1 [[^3H]methoxy-PEPy] |  |  | inhibition of [^3H]methoxy-PEPy binding was determined in HEK293A-rat mGlu5-low cells
6 | COc1cccc(C#Cc2ccc(C)cn2)c1 [M-5MPEP, 2-[2-(3-methoxyphenyl)ethynyl]-5-methylpyridine] | 295 nM | 74.1 nM | 
